Patent EP3733658B1, “PRENYLATED BENZOPYRANES AS PPAR AGONISTS” (Universitat de València, priority 2017, dated 2019)
Like-named read-outs stand apart in the source and are kept apart here.

Key:
[1] = molecular target: T1, hPPARγ (Homo sapiens, UniProt P37231); assay: PPAR/Gal4 chimera luciferase reporter transactivation assay in transiently transfected Cos-7 cells (hPPARγ); assay type: cell-based; settings: for Emax: COS-7, read-out: hPPARγ Efficacy (%); for hPPARγ Efficacy (%): maximum activity as percentage of the maximum activity of rosiglitazone
T1 sequence (P37231 238-505): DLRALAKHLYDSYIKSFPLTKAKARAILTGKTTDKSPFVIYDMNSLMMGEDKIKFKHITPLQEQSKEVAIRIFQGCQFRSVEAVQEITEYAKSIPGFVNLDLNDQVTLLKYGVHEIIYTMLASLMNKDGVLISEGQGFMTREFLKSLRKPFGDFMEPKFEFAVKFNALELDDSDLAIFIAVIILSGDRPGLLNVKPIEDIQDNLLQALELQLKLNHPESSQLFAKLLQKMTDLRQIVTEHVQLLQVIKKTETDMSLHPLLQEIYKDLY
Experimental: (§1) The cells were maintained under standard culture conditions (Dulbecco modified minimum essential Eagle medium, DMEM) supplemented with 10% fetal calf serum (FCS) at 37°C in 5% […] CO2 atmosphere. The medium was changed every 2 days. The Cos-7 cells were seeded in 60 mm discs at a density of 5.5 × 10^5 cells/disc in DMEM supplemented with 10% FCS and incubated at 37°C for 16 h before transfection. The cells were transfected in DMEM using jetPEI, with reporter (pG5-TK-pGL3) and expression (pGal4-h, hPPARα or hPPARγ) plasmids. The expression plasmid pCMV-β-galactosidase was cotransfected as a control for transfection efficacy. After 16 h the transfection was stopped adding DMEM supplemented with 10% FCS, and the cells were trypsinised and seeded in 96-well plates and incubated for 6 h in DMEM containing 10% FCS. Subsequently, the cells were incubated for 24 h in DMEM containing 0.2% FCS and increasing concentrations of the compounds or the vehicle (DMSO, maximum concentration 0.1%) were tested. Finally, the cells were washed once with PBS cooled on ice, lysed and the luciferase and β-galactosidase assays were performed.
(§2) To evaluate the compounds for PPAR transcriptional activity, the tests were conducted in a PPAR/Gal4 chimera of a human luciferase reporter gene to determine the maximum transactivation response of each compound.

[2] = molecular target: T2, hPPARα (Homo sapiens, UniProt Q07869); assay: PPAR/Gal4 chimera luciferase reporter transactivation assay in transiently transfected Cos-7 cells (hPPARα); assay type: cell-based; settings: for Emax: COS-7, read-out: hPPARα Efficacy (%); for hPPARα Efficacy (%): maximum activity as percentage of the maximum activity of WY-14643; for EC50: Cos-7 cells, 24 h, tested 0.001 to 10 µM, read-out: hPPARα EC50
T2 sequence (Q07869 167-468): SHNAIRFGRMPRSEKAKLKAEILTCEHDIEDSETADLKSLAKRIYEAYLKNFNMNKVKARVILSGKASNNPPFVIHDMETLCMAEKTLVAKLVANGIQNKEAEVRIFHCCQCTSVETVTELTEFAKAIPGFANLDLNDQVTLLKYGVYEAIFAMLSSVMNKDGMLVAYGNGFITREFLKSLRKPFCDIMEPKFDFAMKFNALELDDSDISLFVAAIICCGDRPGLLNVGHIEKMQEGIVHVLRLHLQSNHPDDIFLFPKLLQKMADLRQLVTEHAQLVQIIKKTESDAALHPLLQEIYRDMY
Experimental: as §1, §2

[3] = system: human neutrophils; assay: Annexin V / propidium iodide flow cytometry of apoptosis and survival, neutrophils; assay type: cell-based; settings: 100 µM, 24 h, compared to the vehicle
Experimental: (§3) In addition, the apoptosis and survival rate for human neutrophils and HUVEC was determined by double staining with annexin V and propidium iodide (PI) by flow cytometry.
(§4) Cytofluorometric analysis of apoptosis and survival. The kit FITC Annexin V Apoptosis Detection kit (BD Bioscience, San Jose, CA) was used. The staining protocol and all the reagents were supplied with the commercial kit. HUVEC were separated from the culture flasks by accutase (StemPro® Accutase® Cell dissociation reagent, Thermofischer Scientific Waltham, MA). Both cell types were incubated at 37°C for 24h in the presence or absence of the test compounds. Confluent HUVEC and freshly isolated neutrophils were washed, resuspended in binding buffer 1x (1 × 10^6 cells/mL) and stained with annexin V conjugated with FITC and propidium iodide (PI) as described in the manufacturer's instructions. The cells were analyzed in a BD FACSVerse Flow Cytometer (BD Biosciences, San Jose, CA) and differentiated as early apoptosis cells (annexin V^+ and PI^-), late apoptosis cells and/or necrotic cells (annexin V^+ and PI^+), and live cells (annexin V^- and PI^-).

[4] = system: human umbilical vein endothelial cells (HUVEC); assay: MTT colorimetric cell viability assay, HUVEC; assay type: cell-based; settings: 30 µM, 24 h
Experimental: (§5) To evaluate potential adverse effects (cytotoxicity) of the compounds of the invention, the compounds 1 and 2 for use according to the present invention, compound 8 of the invention, and the reference compounds were evaluated at concentrations of 30 and 100 µM in human neutrophils (Fig. 1A) and primary cultures of human umbilical vein endothelial cells (HUVEC) (Fig. 1B) using two different techniques: MTT colorimetry assay and flow cytometry analysis for cellular apoptosis and survival. In addition, the synthetic compound 9 of the invention was evaluated at 10, 30 and 100 µM (Fig. 2).
(§6) MTT assay. The viability of neutrophils and HUVEC was determined by the MTT colorimetric assay MTT (3(4,5-dimethylthiazol-2-yl)-2,5-diphenyltetrazoyl bromide).
Human umbilical vein endothelial cells (HUVEC) were isolated with the collagenase treatment and maintained in a human specific endothelial base medium (EBM-2) supplemented with endothelial growth medium (EGM-2) and 10% FCS. Cells of the first passage were cultured until their confluence in 24-well plates. Before starting each experiment, the cells were incubated for 24 h in a medium containing 1% FBS.
(§7) 100 µL of neutrophils and HUVEC (2 × 10^5 cells/mL) suspension in supplemented RPMI medium were added to each well of a 96-well plate. The cells were incubated in absence and/or presence of the compounds at 37°C for24h. An MTT solution was prepared (2 mg/mL in PBS). 100 µL of the MTT solution were added to each well and incubated at 37°C for an additional 3 h. The supernatants were discarded and 200 µL of DMSO were added to each well to dissolve the precipitated formazan. The optical densities at two wavelengths (560 and 630 nm) were measured in a spectrophotometer (Infinite M200, Tecan, Mannedorf, Switzerland).

[5] = system: human neutrophils; assay: MTT colorimetric cell viability assay, neutrophils; assay type: cell-based; settings: 30 µM, 24 h
Experimental: as §5, §6
Neutrophils were obtained from the leukocyte-platelet fraction (buffy coats) of healthy donors by centrifuging with Ficoll-Hypaque density gradient.
as §7

[6] = system: HUVEC; assay: Annexin V / propidium iodide flow cytometry of apoptosis and survival, HUVEC; assay type: cell-based, human; settings: 24 h; for apoptosis and survival: 30 µM; for reduced cell survival: 100 µM
Experimental: as §3, §4

[7] = Treatment of ob/ob mice: plasma metabolites (cholesterol, HDL-c, triglycerides, free fatty acids, ALT, AST); assay type: in vivo; settings: oral, 4 days
Experimental: […]. […] […].
Free fatty acids (FFA) in plasma, and the enzymes aspartate aminotransferase (AST) and alanine aminotransferase (ALT) were determined with a colorimetric assay kit (Sigma-Aldrich, Madrid, Spain). In addition the plasma lipid levels for total cholesterol and triglycerides (TG) were measured by enzymatic methods (WAKO, Cape Charles, VA). The concentration of HDLcholesterol (HDL-c) was also determined with the same method used to measure total cholesterol, after precipitating the apolipoprotein-B (apoB) with dextran sulphate/MgCl2 (Sigma-Aldrich, Madrid, Spain) as previously described (Zieske et al., 2005).

[8] = Cos-7 cells, 24 h, tested 0.001 to 10 µM, read-out: hPPARγ EC50

Row | Structure (SMILES) | Emax [1] [%] | Emax [2] [%] | EC50 [1, 8] [µM] | other results
1 | CCCOC(=O)/C(C)=C/CC/C(C)=C/CCC1(C)CCc2cc(O)cc(C)c2O1 (stereo not shown) [Compound 3] | 86 | 100 | – | –
2 | C/C(=C\CCC1(C)CCc2cc(OCC(N)=O)cc(C)c2O1)CC/C=C(\C)C(=O)OCc1ccccc1 (stereo not shown) [Compound 4a] | 0 | 18 | – | –
3 | C/C(=C\CCC1(C)CCc2cc(OCc3ccccc3)cc(C)c2O1)CC/C=C(\C)C(=O)OCc1ccccc1 (stereo not shown) [Compound 4b] | 0 | 28 | – | –
4 | COC(=O)C(C)=CCCC(C)=CCCC1(C)CCc2cc(O)cc(C)c2O1 (stereo not shown) [Compound 5] | – | – | 0.574 | hPPARγ Efficacy (%) [1]: 35%; hPPARα Efficacy (%) [2]: 27%
5 | COC(=O)COC(=O)/C(C)=C/CC/C(C)=C/CCC1(C)CCc2cc(OC(=O)c3ccccc3)cc(C)c2O1 (stereo not shown) [Compound 6] | 0 | 14 | – | –
6 | COC(=O)C(OC(=O)/C(C)=C/CC/C(C)=C/CCC1(C)CCc2cc(OC)cc(C)c2O1)C(=O)OC (stereo not shown) [Compound 7] | 37 | 76 | – | –
7 | COC(=O)COC(=O)/C(C)=C/CC/C(C)=C/CCC1(C)CCc2cc(OC)cc(C)c2O1 (stereo not shown) [Compound 8] | 24 | 39 | 0.012 | effect on cell survival [3]: 5.3%; toxicity (MTT) [4]: showed toxicity; toxicity (MTT) [5]: showed toxicity; apoptosis and survival [6]: some significant effects; reduced cell survival [6]: 61,3%
8 | CCOC(=O)/C(=C/CC/C(C)=C/CCC1(C)CCc2cc(OCc3ccccc3)ccc2O1)OCC (stereo not shown) [Compound 10] | 183 | 60 | 2 | –
9 | CCO/C(=C\CC/C(C)=C/CCC1(C)CCc2cc(OCc3ccccc3)ccc2O1)C(=O)O (stereo not shown) [Compound 11] | 62 | 96 | 0.3 | EC50 [2]: 1.5 µM
10 | CCOC(=O)/C(=C/CC/C(C)=C/CCC1(C)CCc2cc(OCc3ccc(F)cc3)ccc2O1)OCC (stereo not shown) [Compound 12] | 183 | 113 | 2 | –
11 | CCOC(=O)C(=CCCC1(C)CCc2cc(OCc3ccccc3)ccc2O1)OCC(F)(F)F (stereo not shown) [Compound 13] | – | – | – | EC50 [1]: 0.4 µM; hPPARγ Efficacy (%) [1]: 39%; hPPARα Efficacy (%) [2]: 166%
12 | COc1cc(C)c2c(c1)CCC(C)(CC/C=C(\C)CC/C=C(\C)C(=O)O)O2 (stereo not shown) [Polycerasoidin, 2, polycerasoidin] | 55 | 82 | 1 | toxicity (MTT) [4]: showed toxicity; toxicity (MTT) [5]: showed toxicity; apoptosis and survival [6]: some significant effects; reduced cell survival [6]: 38,9%; EC50 [2]: 1 µM
13 | CN(CCOc1ccc(CC2SC(=O)NC2=O)cc1)c1ccccn1 (stereo not shown) [Rosiglitazone, rosiglitazone, reference compound] | – | – | – | effect on cell survival [3]: 8.5%; apoptosis and survival [6]: some significant effects; reduced cell survival [6]: 79,2%
14 | Cc1cccc(Nc2cc(Cl)nc(SCC(=O)O)n2)c1C [WY-14643, reference compound] | – | – | – | triglyceride levels in plasma (in words) [7]: decrease of triglyceride levels in plasma, although not in a significant manner; increase of total cholesterol levels with respect to the control group ([7]; plasma, 30 mg/Kg/d): 64%; HDL-c with respect to the control group ([7]; plasma, compound 9 10 and 30 mg/Kg/d, WY-14643 30 mg/Kg/d): significantly increased; cytotoxicity (MTT) [5]: 9%
